Substitutions are numbered along the chain they refer to. Like-named read-outs stand apart in the source and are kept apart here. Each block holds one compound with its values, some of them ahead of it.
How the values were obtained:
hyrax BLVRB = target: T1, hyrax BLVRB; assay: NMR titration ([…]-HSQC); design: species or system Procavia capensis; details: holo form, bis-tris pH 6.5, 20 °C, 900 MHz
T1 construct: pET21

human BLVRB [1] = target: T2, human BLVRB (Homo sapiens, UniProt P30043); assay: NMR titration ([…]-HSQC); type: binding
T2 construct: pET21
T2 sequence (P30043 2-206): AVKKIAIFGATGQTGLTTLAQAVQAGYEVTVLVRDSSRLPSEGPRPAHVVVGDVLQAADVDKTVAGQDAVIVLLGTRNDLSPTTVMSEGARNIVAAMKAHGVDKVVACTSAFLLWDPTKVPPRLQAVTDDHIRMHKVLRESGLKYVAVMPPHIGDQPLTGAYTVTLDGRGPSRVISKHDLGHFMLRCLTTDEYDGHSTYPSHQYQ

human BLVRB [2] = target: T2, human BLVRB; assay: NMR titration ([…]-HSQC); details: bis-tris pH 6.5; weak binding
human BLVRB [3] = target: T2, human BLVRB; assay: isothermal titration calorimetry; type: binding
Text: (§1) isothermal titration calorimetry on human BLVRB

human BLVRB [4] = target: T3, human BLVRB (Homo sapiens, UniProt P30043, T164S); assay: isothermal titration calorimetry; type: binding
T3 construct: pET21
T3 sequence (P30043 2-206 T164S): T2 sequence (P30043 2-206) with T163S
Text: as §1

Aedes aegypti BLVRB = target: T4, Aedes aegypti BLVRB (Aedes aegypti, UniProt Q16FC8); assay: NMR spectra ([…]-HSQC) apo versus NADP+; type: binding; details: complex unstable over hours at room temperature
T4 construct: gene 5565330
T4 sequence (Q16FC8 1-205): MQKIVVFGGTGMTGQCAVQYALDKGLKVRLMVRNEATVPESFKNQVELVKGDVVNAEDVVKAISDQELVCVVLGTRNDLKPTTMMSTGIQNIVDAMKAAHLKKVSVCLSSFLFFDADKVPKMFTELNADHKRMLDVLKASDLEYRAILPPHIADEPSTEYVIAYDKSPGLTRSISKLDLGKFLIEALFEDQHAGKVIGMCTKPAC

Kd (human BLVRB [3]; read-out: Kd (nM) with NADPH): 130 ± 10 nM
Kd (human BLVRB [4]; read-out: Kd (nM) with NADPH): 110 ± 10 nM
Compound: NC(=O)C1=CN([C@@H]2O[C@H](COP(=O)(O)OP(=O)(O)OC[C@H]3O[C@@H](n4cnc5c(N)ncnc54)[C@H](OP(=O)(O)O)[C@@H]3O)[C@@H](O)[C@H]2O)C=CC1 [NADPH]

Kd (human BLVRB [3]; read-out: Kd (nM) with NADP^+): 190 ± 5 nM
Kd (human BLVRB [4]; read-out: Kd (nM) with NADP^+): 130 ± 10 nM
Compound: NC(=O)c1ccc[n+]([C@@H]2O[C@H](COP(=O)(O)OP(=O)(O)OC[C@H]3O[C@@H](n4cnc5c(N)ncnc54)[C@H](OP(=O)(O)O)[C@@H]3O)[C@@H](O)[C@H]2O)c1 [NADP^+]
NMR spectra (15N-HSQC) apo versus NADP+ (Aedes aegypti BLVRB): gave rise to good dispersion upon NADP^+ binding

Continued, compound first:

Compound: C=CC1=C(C)/C(=C/c2[nH]c(Cc3[nH]c(/C=C4\NC(=O)C(C)=C4CCC(=O)O)c(CCC(=O)O)c3C)c(C)c2C=C)NC1=O (mixture of isomers) [bilirubin-β]
Kd (hyrax BLVRB; NADP+ 1 mM, read-out: binding affinity): 19.5 ± 7.4 µM
Kd (human BLVRB [1]; read-out: binding affinity): 26.8 ± 9.1 µM

Compound: C=CC1=C(C)/C(=C/c2[nH]c(Cc3[nH]c(/C=C4\NC(=O)C(C)=C4C=C)c(C)c3CCC(=O)O)c(CCC(=O)O)c2C)NC1=O [BR-α]
binding affinity (human BLVRB [2]): a titration of human BLVRB with BR-α revealed an expected weak binding affinity

Compound: Cc1cc2nc3c(=O)[nH]c(=O)nc-3n(C[C@H](O)[C@H](O)[C@H](O)COP(=O)(O)OP(=O)(O)OC[C@H]3O[C@@H](n4cnc5c(N)ncnc54)[C@H](O)[C@@H]3O)c2cc1C [FAD]
Kd (hyrax BLVRB; read-out: Kd): 496 ± 22.6 µM
Kd (human BLVRB [1]; read-out: Kd): 283 ± 13.5 µM

Source: publication PMC11675717, “Evolutionary Adaptations in Biliverdin Reductase B: Insights into Coenzyme Dynamics and Catalytic Efficiency” (International Journal of Molecular Sciences, 2024)
